From US12030881B2, “Ion channel modulators” (PRAXIS PRECISION MEDICINES, INC., priority 2019, dated 2024) come the findings set out here.

The term inhibition denotes how much of the control response was suppressed.

T1 sequence (Q9UQD0 whole entry): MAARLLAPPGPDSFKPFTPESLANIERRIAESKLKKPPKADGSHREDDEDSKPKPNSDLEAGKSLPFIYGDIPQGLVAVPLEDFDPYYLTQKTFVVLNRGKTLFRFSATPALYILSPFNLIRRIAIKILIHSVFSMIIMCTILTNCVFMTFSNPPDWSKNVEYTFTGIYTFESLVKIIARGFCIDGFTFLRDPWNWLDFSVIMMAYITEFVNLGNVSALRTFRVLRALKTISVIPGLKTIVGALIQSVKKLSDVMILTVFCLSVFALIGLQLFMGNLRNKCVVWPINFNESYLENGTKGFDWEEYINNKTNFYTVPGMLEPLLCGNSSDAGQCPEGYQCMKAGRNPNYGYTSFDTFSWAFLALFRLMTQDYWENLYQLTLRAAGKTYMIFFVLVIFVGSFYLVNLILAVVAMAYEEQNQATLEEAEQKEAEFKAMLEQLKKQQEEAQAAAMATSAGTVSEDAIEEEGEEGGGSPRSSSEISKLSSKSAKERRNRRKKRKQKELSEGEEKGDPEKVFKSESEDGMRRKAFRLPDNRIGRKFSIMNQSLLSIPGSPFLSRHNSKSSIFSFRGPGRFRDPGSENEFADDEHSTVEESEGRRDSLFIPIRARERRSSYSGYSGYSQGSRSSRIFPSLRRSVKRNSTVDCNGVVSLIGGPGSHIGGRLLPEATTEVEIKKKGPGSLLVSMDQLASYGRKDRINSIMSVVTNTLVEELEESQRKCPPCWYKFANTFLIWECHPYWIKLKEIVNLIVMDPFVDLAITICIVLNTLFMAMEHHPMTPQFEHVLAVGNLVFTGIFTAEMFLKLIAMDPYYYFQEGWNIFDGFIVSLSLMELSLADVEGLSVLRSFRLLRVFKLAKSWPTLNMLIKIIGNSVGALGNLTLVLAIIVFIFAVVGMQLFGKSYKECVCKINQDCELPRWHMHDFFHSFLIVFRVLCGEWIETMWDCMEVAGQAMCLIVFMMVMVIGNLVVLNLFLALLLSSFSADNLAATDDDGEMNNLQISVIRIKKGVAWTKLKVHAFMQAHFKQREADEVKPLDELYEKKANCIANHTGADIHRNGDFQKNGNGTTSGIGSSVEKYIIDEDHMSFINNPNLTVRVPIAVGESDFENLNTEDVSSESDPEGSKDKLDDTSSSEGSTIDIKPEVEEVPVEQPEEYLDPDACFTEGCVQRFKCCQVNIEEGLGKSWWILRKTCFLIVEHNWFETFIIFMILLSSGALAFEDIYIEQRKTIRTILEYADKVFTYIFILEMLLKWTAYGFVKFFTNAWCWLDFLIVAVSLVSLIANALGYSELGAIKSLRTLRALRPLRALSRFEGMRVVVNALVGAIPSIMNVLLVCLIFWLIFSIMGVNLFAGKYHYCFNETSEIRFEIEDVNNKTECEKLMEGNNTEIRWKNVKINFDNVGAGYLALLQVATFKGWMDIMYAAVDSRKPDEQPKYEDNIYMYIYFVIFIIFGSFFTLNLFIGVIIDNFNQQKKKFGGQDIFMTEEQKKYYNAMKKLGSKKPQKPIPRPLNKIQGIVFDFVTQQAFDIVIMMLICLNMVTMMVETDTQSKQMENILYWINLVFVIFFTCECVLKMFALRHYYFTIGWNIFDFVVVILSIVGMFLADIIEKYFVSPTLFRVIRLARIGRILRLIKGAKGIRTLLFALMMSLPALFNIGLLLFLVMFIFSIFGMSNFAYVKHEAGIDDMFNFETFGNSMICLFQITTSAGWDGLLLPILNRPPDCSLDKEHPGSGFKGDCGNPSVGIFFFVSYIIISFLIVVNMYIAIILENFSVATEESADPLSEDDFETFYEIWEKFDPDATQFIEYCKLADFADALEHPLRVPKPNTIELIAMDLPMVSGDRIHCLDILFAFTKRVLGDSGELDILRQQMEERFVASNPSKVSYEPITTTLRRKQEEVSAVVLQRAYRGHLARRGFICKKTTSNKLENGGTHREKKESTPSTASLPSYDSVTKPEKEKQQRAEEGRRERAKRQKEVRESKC

The assay has as its target T1, INaL v1.6 (Nav late current, recombinant sodium channels) (Homo sapiens, UniProt Q9UQD0).
T1 construct: expressed in transfected cells; host or cells: HEK-293
Kind of assay: PatchXpress electrophysiology, ATX-II evoked Nav late current (INaL) in HEK-293 cells expressing recombinant sodium channels. In kind it is cell-based. The following applies: HEK293, compound at 1 μM, late current evoked by ATX-II 300 nM, steady state block. Here is the method: Functional characterization of exemplary compounds to modulate voltage gated sodium currents was accomplished using the PatchXpress™ high throughput electrophysiology platforms (Molecular Devices, Sunnyvale, CA). HEK-293 cells expressing recombinant sodium channels were grown in DMEM/high-glucose Dulbecco's modified, 10% FBS, 2 mM sodium pyruvate, and G418. Nav channel expressing cells were grown to 50%-80% confluency and harvested by trypsinization. Trypsinized cells were washed and resuspended in extracellular buffer at a concentration of 1×10^6 cells/ml. The onboard liquid handling facility of the PatchXpress was used for dispensing cells and application of test compounds. Nav late currents were evoked by the application of ATX-II, 300 nM. Currents were evoked by depolarizing pulses to 0 mV for 200 ms from a non-inactivating holding potential (e.g., −120 mV to −150 mV) at a frequency of 0.1 Hz. Late current amplitude and stability were determined by analyzing the mean current amplitude over the 175-195 msec region of the 200 msec test pulse. Following steady state block with exemplary compounds (e.g., as described herein) at 1 μM, a Na free solution containing an impermeant cation (e.g., Choline or NDMG) was added for determination of the 0 current level. Late current amplitudes for each test condition were determined from the mean of the 175-195 msec region of the 200 msec test pulse. Percent inhibition of steady state currents was calculated as (compound-baseline)/(control-baseline)*100, where control represents INaL recorded in the absence of compound.
On to `C[C@H](Oc1ncc(-c2ccc3nnc(C(F)(F)F)n3c2)cc1F)C(F)(F)F` [Example 1, 6-[5-fluoro-6-[(1S)-2,2,2-trifluoro-1-methyl-ethoxy]-3-pyridyl]-3-(trifluoromethyl)-[1,2,4]triazolo[4,3-a]pyridine], for which the inhibition at 1 µM is more than 75%. Consider `C[C@@H](Oc1ncc(-c2ccc3nnc(C(F)(F)F)n3c2)cc1F)C(F)(F)F` [Example 2, 6-[5-fluoro-6-[(1R)-2,2,2-trifluoro-1-methyl-ethoxy]-3-pyridyl]-3-(trifluoromethyl)-[1,2,4]triazolo[4,3-a]pyridine], for which the inhibition at 1 µM was more than 75%. With `C[C@@H](Oc1ncc(-c2ccc3nnc(C(F)F)n3c2)cc1F)C(F)(F)F` [Example 3, 3-(difluoromethyl)-6-[5-fluoro-6-[(1R)-2,2,2-trifluoro-1-methyl-ethoxy]-3-pyridyl]-[1,2,4]triazolo[4,3-a]pyridine] the figure was more than 75%. For `C[C@H](Oc1ncc(-c2ccc3nnc(C(F)F)n3c2)cc1F)C(F)(F)F` [Example 4, 3-(difluoromethyl)-6-[5-fluoro-6-[(1S)-2,2,2-trifluoro-1-methyl-ethoxy]-3-pyridyl]-[1,2,4]triazolo[4,3-a]pyridine], the inhibition at 1 µM was more than 75%. In the case of `CC(C)(Oc1ncc(-c2ccc3nnc(C(F)F)n3c2)cc1F)C(F)(F)F` [Example 5, 3-(difluoromethyl)-6-[5-fluoro-6-(2,2,2-trifluoro-1,1-dimethyl-ethoxy)-3-pyridyl]-[1,2,4]triazolo[4,3-a]pyridine], the inhibition at 1 µM was more than 75%.

Consider `CC(C)(Oc1ncc(-c2ccc3nnc(C(F)(F)F)n3c2)cc1F)C(F)(F)F` [Example 6, 6-[5-fluoro-6-(2,2,2-trifluoro-1,1-dimethyl-ethoxy)-3-pyridyl]-3-(trifluoromethyl)-[1,2,4]triazolo[4,3-a]pyridine], for which the inhibition at 1 µM was more than 75%. The figure for `Fc1cc(-c2ccc3nnc(C(F)(F)F)n3c2)cnc1OC1(C(F)(F)F)CCC1` [Example 7, 6-[5-fluoro-6-[1-(trifluoromethyl)cyclobutoxy]-3-pyridyl]-3-(trifluoromethyl)-[1,2,4]triazolo[4,3-a]pyridine] is more than 75%; for `Fc1cc(-c2ccc3nnc(C(F)(F)F)n3c2)cnc1OC1(C(F)(F)F)COC1` [Example 8, 6-[5-fluoro-6-[3-(trifluoromethyl)oxetan-3-yl]oxy-3-pyridyl]-3-(trifluoromethyl)-[1,2,4]triazolo[4,3-a]pyridine] it is 50 to 75%; for `Fc1cc(-c2ccc3nnc(C(F)F)n3c2)cnc1OCC(F)(F)F` [Example 9, 3-(difluoromethyl)-6-[5-fluoro-6-(2,2,2-trifluoroethoxy)-3-pyridyl]-[1,2,4]triazolo[4,3-a]pyridine] it is 50 to 75%. `Fc1cc(-c2ccc3nnc(C(F)(F)F)n3c2)cnc1OCC(F)(F)F` [Example 10, 6-[5-fluoro-6-(2,2,2-trifluoroethoxy)-3-pyridyl]-3-(trifluoromethyl)-[1,2,4]triazolo[4,3-a]pyridine]: the inhibition at 1 µM was more than 75%.
